# Measured values from patent US7981903B2, “2-[2-{phenylamino}-1H-pyrrolo[2,3-D]pyrimidin-4-yl)amino] benzamide derivatives as IGF-1R inhibitors for the treatment of cancer” (GlaxoSmithKline LLC, priority 2007, dated 2011).
# How the values were obtained:
# human IGF1R (hIGF1R) = molecular target: T1, human IGF1R (hIGF1R) (Homo sapiens, UniProt P08069); test: TR-FRET kinase assay of purified hIGF1R; type: biochemical; settings: activated hIGF1R 0.5 nM, 10 μM ATP, values given as pIC50 category, read-out: IGF-1R pIC50 (converted)
# T1 construct: containing amino acid residues 957-1367 of human IGF1R; made in house; host or cells: Sf9 cells (baculovirus)
# Colo205 = test: Inhibition of cell proliferation (CellTiter-Glo or InCell analyzer), Colo205; type: cell-based; settings: Homo sapiens, COLO 205, 72 h / 3 days, values given as IC50 category
# Summary of the method: In one
# NCI-H929 = test: Inhibition of cell proliferation (CellTiter-Glo or InCell analyzer), NCI-H929; type: cell-based; settings: Homo sapiens, 72 h / 3 days, values given as IC50 category
# Summary of the method: In one
# [1] = molecular target: T2, NIH-3T3 cells overexpressing human IR (Homo sapiens, UniProt P06213); test: IR cellular autophosphorylation (DELFIA); type: cell-based; settings: 2 h compound, insulin 3 ug/ml for 15 minutes, IC50 category
# T2 construct: expressed in transfected cells; host or cells: NIH-3T3 (mouse fibroblasts)
# Summary of the method: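 Receptor autophosphorylation measured by DELFIA, capturing IGF-1R or IRβ and detecting with europium anti-pTyr, reported as percent of IGF-1- or insulin-stimulated signal. Compounds (30 uM to 1.5 nM) added 2 h before ligand, then 15 min stimulation (IGF-1 30 ng/ml or insulin 3 ug/ml).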
# T2 sequence (P06213 28-1382): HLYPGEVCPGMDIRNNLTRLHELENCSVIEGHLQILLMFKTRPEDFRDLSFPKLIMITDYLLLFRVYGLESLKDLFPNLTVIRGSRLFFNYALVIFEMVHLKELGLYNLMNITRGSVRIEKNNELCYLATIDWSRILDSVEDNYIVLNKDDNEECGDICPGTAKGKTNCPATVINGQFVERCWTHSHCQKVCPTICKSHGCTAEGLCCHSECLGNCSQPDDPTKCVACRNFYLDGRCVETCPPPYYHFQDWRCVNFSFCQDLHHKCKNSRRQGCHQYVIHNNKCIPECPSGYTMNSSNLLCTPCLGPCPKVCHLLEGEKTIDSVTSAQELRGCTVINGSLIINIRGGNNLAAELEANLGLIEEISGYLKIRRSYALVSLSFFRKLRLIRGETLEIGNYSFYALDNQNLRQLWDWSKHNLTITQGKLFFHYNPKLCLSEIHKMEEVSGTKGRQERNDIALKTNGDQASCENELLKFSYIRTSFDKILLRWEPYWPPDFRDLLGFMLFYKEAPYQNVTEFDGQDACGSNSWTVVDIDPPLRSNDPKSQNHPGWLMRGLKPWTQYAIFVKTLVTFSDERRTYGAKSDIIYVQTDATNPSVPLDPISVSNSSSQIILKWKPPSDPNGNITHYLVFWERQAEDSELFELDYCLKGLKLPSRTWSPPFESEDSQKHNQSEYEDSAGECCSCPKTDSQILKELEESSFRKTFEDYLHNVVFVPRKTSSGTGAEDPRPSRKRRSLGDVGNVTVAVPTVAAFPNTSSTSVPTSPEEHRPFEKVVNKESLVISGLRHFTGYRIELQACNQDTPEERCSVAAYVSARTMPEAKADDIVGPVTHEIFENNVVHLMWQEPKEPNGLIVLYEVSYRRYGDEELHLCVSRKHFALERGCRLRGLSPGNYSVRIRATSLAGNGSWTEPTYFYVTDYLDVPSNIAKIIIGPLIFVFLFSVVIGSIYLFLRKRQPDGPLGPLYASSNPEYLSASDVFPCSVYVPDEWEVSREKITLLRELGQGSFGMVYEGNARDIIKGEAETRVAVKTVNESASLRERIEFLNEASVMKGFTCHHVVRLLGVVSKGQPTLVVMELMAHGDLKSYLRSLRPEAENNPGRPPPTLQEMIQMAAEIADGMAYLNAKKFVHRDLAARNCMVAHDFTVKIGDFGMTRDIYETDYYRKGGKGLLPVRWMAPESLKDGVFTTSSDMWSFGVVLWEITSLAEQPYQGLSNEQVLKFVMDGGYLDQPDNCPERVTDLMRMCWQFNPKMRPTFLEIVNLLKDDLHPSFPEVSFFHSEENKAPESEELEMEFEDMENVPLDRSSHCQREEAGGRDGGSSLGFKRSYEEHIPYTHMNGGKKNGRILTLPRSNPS
# T1 sequence (P08069 957-1367): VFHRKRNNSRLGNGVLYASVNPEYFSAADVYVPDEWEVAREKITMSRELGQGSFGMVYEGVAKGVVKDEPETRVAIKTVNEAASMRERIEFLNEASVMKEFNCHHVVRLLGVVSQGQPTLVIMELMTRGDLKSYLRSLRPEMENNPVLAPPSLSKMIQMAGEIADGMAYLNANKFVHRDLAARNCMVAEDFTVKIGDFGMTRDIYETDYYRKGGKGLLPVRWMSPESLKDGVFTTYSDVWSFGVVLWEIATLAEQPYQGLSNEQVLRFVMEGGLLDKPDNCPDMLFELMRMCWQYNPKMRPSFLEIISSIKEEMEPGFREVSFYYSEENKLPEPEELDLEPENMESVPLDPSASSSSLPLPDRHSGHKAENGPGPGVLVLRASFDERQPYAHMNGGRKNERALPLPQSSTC
Compound,IC50 (human IGF1R (hIGF1R)),IC50 (Colo205),IC50 (NCI-H929),IC50 [1]
"CCCN1CCC(COc2ccc(Nc3nc(Nc4cccc(F)c4C(N)=O)c4cc[nH]c4n3)c(OC)c2)CC1 [Example 206, 2-fluoro-6-({2-[(2-(methyloxy)-4-{[(1-propyl-4-piperidinyl)methyl]oxy}phenyl)amino]-1H-pyrrolo[2,3-d]pyrimidin-4-yl}amino)benzamide]",1.26 to 3.98 nM,250 to 1000 nM,< 250 nM,100 to 500 nM
"COc1cc(N2CCCN(C)CC2)ccc1Nc1nc(Nc2cccc(F)c2C(N)=O)c2cc[nH]c2n1 [Example 209, 2-fluoro-6-[(2-{[4-(4-methylhexahydro-1H-1,4-diazepin-1-yl)-2-(methyloxy)phenyl]amino}-1H-pyrrolo[2,3-d]pyrimidin-4-yl)amino]benzamide]",1.26 to 3.98 nM,< 250 nM,< 250 nM,100 to 500 nM
"CNC(=O)c1c(F)cccc1Nc1nc(Nc2cc3c(cc2OC)CCCN3C(=O)CN(C)C)nc2[nH]ccc12 [Example 212, 2-[(2-{[1-(N,N-dimethylglycyl)-6-(methyloxy)-1,2,3,4-tetrahydro-7-quinolinyl]amino}-1H-pyrrolo[2,3-d]pyrimidin-4-yl)amino]-6-fluoro-N-methylbenzamide]",1.26 to 3.98 nM,250 to 1000 nM,< 250 nM,100 to 500 nM
"CNC(=O)c1c(F)cccc1Nc1nc(Nc2cc3c(cc2OC)CCCN3C(=O)CN2CCCCC2)nc2[nH]ccc12 [Example 217, 2-fluoro-N-methyl-6-[(2-{[6-(methyloxy)-1-(1-piperidinylacetyl)-1,2,3,4-tetrahydro-7-quinolinyl]amino}-1H-pyrrolo[2,3-d]pyrimidin-4-yl)amino]benzamide]",1.26 to 3.98 nM,250 to 1000 nM,< 250 nM,< 100 nM
"COc1cc2c(cc1Nc1nc(Nc3cccc(F)c3C(N)=O)c3cc[nH]c3n1)CN(CCF)CC2 [Example 233, 2-fluoro-6-[(2-{[2-(2-fluoroethyl)-6-(methyloxy)-1,2,3,4-tetrahydro-7-isoquinolinyl]amino}-1H-pyrrolo[2,3-d]pyrimidin-4-yl)amino]benzamide]",1.26 to 3.98 nM,250 to 1000 nM,< 250 nM,< 100 nM
"COc1cc2c(cc1Nc1nc(Nc3cccc(F)c3C(N)=O)c3cc[nH]c3n1)CN(C(C)C)CC2 [Example 236, 2-fluoro-6-[(2-{[2-(1-methylethyl)-6-(methyloxy)-1,2,3,4-tetrahydro-7-isoquinolinyl]amino}-1H-pyrrolo[2,3-d]pyrimidin-4-yl)amino]benzamide]",1.26 to 3.98 nM,250 to 1000 nM,< 250 nM,100 to 500 nM
"CCC(C)N1CCc2cc(OC)c(Nc3nc(Nc4cccc(F)c4C(N)=O)c4cc[nH]c4n3)cc2C1 (centres unmarked) [Example 237, 2-fluoro-6-[(2-{[6-(methyloxy)-2-(1-methylpropyl)-1,2,3,4-tetrahydro-7-isoquinolinyl]amino}-1H-pyrrolo[2,3-d]pyrimidin-4-yl)amino]benzamide]",1.26 to 3.98 nM,250 to 1000 nM,< 250 nM,< 100 nM
"COc1cc2c(cc1Nc1nc(Nc3cc(F)cc(F)c3C(N)=O)c3cc[nH]c3n1)CN(CCF)CC2 [Example 239, 2,4-difluoro-6-[(2-{[2-(2-fluoroethyl)-6-(methyloxy)-1,2,3,4-tetrahydro-7-isoquinolinyl]amino}-1H-pyrrolo[2,3-d]pyrimidin-4-yl)amino]benzamide]",1.26 to 3.98 nM,> 1000 nM,250 to 1000 nM,> 500 nM
"CNC(=O)c1c(F)cccc1Nc1nc(Nc2cc(NC(=O)CN(C)C)ccc2OC)nc2[nH]ccc12 [Example 245, 2-[(2-{[5-[(N,N-dimethylglycyl)amino]-2-(methyloxy)phenyl]amino}-1H-pyrrolo[2,3-d]pyrimidin-4-yl)amino]-6-fluoro-N-methylbenzamide]",1.26 to 3.98 nM,250 to 1000 nM,< 250 nM,> 500 nM
"Cc1cc2c(cc1Nc1nc(Nc3cccc(F)c3C(N)=O)c3cc[nH]c3n1)N(C(=O)CN(C)C)CCC2 [Example 246, 2-[(2-{[1-(N,N-dimethylglycyl)-6-methyl-1,2,3,4-tetrahydro-7-quinolinyl]amino}-1H-pyrrolo[2,3-d]pyrimidin-4-yl)amino]-6-fluorobenzamide]",1.26 to 3.98 nM,250 to 1000 nM,< 250 nM,100 to 500 nM
"CNC(=O)c1c(F)cccc1Nc1nc(Nc2cc3c(cc2OC)CCN3C(=O)CN(C)C)nc2[nH]cc(F)c12 [Example 253, 2-[(2-{[1-(N,N-dimethylglycyl)-5-(methyloxy)-2,3-dihydro-1H-indol-6-yl]amino}-5-fluoro-1H-pyrrolo[2,3-d]pyrimidin-4-yl)amino]-6-fluoro-N-methylbenzamide]",1.26 to 3.98 nM,250 to 1000 nM,250 to 1000 nM,100 to 500 nM
